Source: patent US8633161B2, “Therapeutic agents for the treatment of leukemia” (The Ohio State University Research Foundation, priority 2005, dated 2014)
Counter-ions that a name gives are not always drawn. Like-named read-outs stand apart in the source and are kept apart here. Each block holds one molecule with its values, some of them ahead of it. Square brackets hold non-standard residues; d marks the D form. Peptide text beside a SMILES is read from it. * marks the point of attachment. Myristoyl = CCCCCCCCCCCCCC(=O)*; Nle = CCCC[C@H](N)C(=O)O

Experiments:
BCR/ABL = test: Western blot of BCR/ABL activity (phosphotyrosine) and expression; format: cell-based; details: for EC50: 18-24 hr, read-out: EC50 of downregulation of BCR/ABL; for BCR/ABL activity and expression: HA-PP2Ac-transduced 32D-BCR/ABL cells, okadaic acid 0.25 nM, 1 hr
Method: Cells (10^7) were lysed in 100 μl of RIPA buffer (150 mM NaCl, 1% NP-40, 0.1% SDS, 50 mM Tris [pH 8.0]) supplemented with 1 mM PMSF, 25 μg/ml aprotinin, 10 μg/ml leupeptin, 100 μg/ml pepstatin A, 5 mM benzamidine, 1 mM Na3VO4, 50 mM NaF, 10 mM β-glycerol-phosphate. After incubation on ice (30 min), lysates were clarified (12,000×g, 15 min, 4° C.), denatured, and subjected to SDS-PAGE and Western blot (Iervolino et al., 2002). The antibodies used were goat polyclonal anti-SET(I2PP2A), -pp32(I1PP2A), and -hnRNP A1 and rabbit polyclonal anti-SHP-1 (Santa Cruz Biotechnology); monoclonal anti-Abl (Ab-3), -c-myc (Ab-2), -phosphotyrosine PY20 (Ab-4), and -pBAD^S112 (Ab-1) (EMD); monoclonal anti-hnRNP A1 (9H10) (G. Dreyfuss, University of Pennsylvania, Philadelphia, Pa.); monoclonal anti-GRB2 and -Rb (BD TransLab Inc.); monoclonal anti-HA (Covance); monoclonal anti-PP2Ac, clone 1D6 (Upstate Inc.); monoclonal anti-FLAG, clone M2 (Sigma); monoclonal anti-pERK^T202/Y204 and rabbit polyclonal anti-pAKT^T308, pSTAT5^Y694, -pJak2^Y1007/1008, -Jak2, -BAD, -Akt, and -ERK1/2 (Cell Signaling Technology Inc.); monoclonal anti-STATS (Invitrogen); rabbit monoclonal anti-pPP2A^Y307 (Epitomics); rabbit polyclonal anti-PR65/A (Calbiochem). IPs were carried out in 20 mM HEPES (pH 7.0), 150 mM NaCl, and 0.2% NP-40 supplemented with protease and phosphatase inhibitors. Lysates were precleared and immunoprecipitated with Ab-coated beads for 3 hr at 4° C. After washings, IPs were subjected to SDS-PAGE and Western blot.

PP2A = biological target: T1, PP2A (Mus musculus, UniProt P63330); test: PP2A IP phosphatase assay on lysates of treated cells; format: cell-based
T1 construct: endogenous in cells; host or cells: 32Dc13, 32D-BCR/ABL, 32D-BCR/ABL-T315I, 32D-p210 Y253H, BaF3-p210 T315I, K562, primary CML-BC CD34+ and NBM CD34+ cells
Method: PP2A phosphatase assays were carried out using the PP2A IP phosphatase assay kit (Upstate). Briefly, protein lysates (50 μg) in 100 μl of 20 mM HEPES (pH 7.0)/100 mM NaCl, 5 μg of PP2Ac antibody (Upstate), and 25 μl of Protein A-agarose were added to 400 μl of 50 mM Tris (pH 7.0)/100 mM CaCl2, and IPs were carried out at 4° C. for 2 hr. IPs were washed and used in the phosphatase reaction according to the manufacturer's protocol. Specificity of the PP2A assay was assessed by titration with okadaic acid and by ascertaining the absence of PP1a in the PP2A immunoprecipitates (Figure S2A). As internal control, the amount of immunoprecipitated PP2A was also monitored by anti-PP2Ac Western blots (Figure S2B).

[1] = i.p.; cited from earlier work
[2] = test system: 32D-BCR/ABL (T315I) cells; details: for treated mice BCR/ABL negative and alive 18 weeks after cell injection: after 4 weeks from restarting therapy
NBM CD34+ cells = test: Methylcellulose colony formation of normal CD34+ marrow cells; format: cell-based, human; details: NBM CD34+ cells (normal CD34+ myeloid progenitors)
Method: The Ph^1 K562, the BCR/ABL-expressing 32Dc13 and BaF3 cells, and their derivative lines were maintained in culture in IMDM/10% FBS/2 mM L-glutamine. The SET shRNA-, HA-PP2Ac-, and HA-PP2Ac/FLAG-SET-expressing cells were generated by retroviral infection followed by either antibiotic-mediated selection or FACS-mediated sorting of the GFP+ (green fluorescent protein) cells as described (Perrotti et al., (2002), Nat. Genet. 30:48-58). The following cells were kind gifts: 32D-p210^Y253H (B. Calabretta; TJU, Philadelphia, Pa.); BaF3-p210^T315I (B. Druker; OHSU, Portland, Oreg.); TonB210.1 (G. Daley; Harvard University, Cambridge, Mass.). Frozen samples of CD34+ bone marrow cells (NBM) from different healthy donors were from AllCells LLC (Berkeley, Calif.). […] Erythroid differentiation of K562 and derivative cell lines was assessed by o-Dianisidine (Fast Blue B; Sigma) staining of methylcellulose colonies. […]
Methylcellulose colony formation assays were carried out by plating 103 or 5×10^4 cells from BCR/ABL cell lines or primary human CML and mouse BMC, respectively, in 0.9% MethoCult H4230 (Stem Cell Technologies Inc.). […] Colonies (>125 μm) from cell lines and primary cells were scored 7 and 15 days later, respectively.

[3] = test system: imatinib-sensitive and -resistant BCR/ABL+ cell lines; test: Methylcellulose colony formation of BCR/ABL cell lines; format: cell-based
Method: Methylcellulose colony formation assays were carried out by plating 103 or 5×10^4 cells from BCR/ABL cell lines or primary human CML and mouse BMC, respectively, in 0.9% MethoCult H4230 (Stem Cell Technologies Inc.). Where indicated, cells were plated in the presence of rhIL-3 (100 ng/ml) or rhG-CSF (25 ng/ml). Colonies (>125 μm) from cell lines and primary cells were scored 7 and 15 days later, respectively.

32D-BCR/ABL cells = details: for mice still alive: 15 weeks postinjection
[4] = test system: BCR/ABL-transduced wild-type and SHP-1-deficient CD34+ mouse marrow cells; test: Clonogenic assay of BCR/ABL-transduced mouse CD34+ marrow cells; format: cell-based; details: forskolin 40 μM
Method: Normal murine hematopoietic marrow cells were obtained from the femurs of wild-type and SHP-1-deficient “viable moth eaten” mice (The Jackson Laboratory). After hypotonic lysis and Ficoll separation, cells were used for the isolation of the CD34+/lin− fraction (Miltenyi Biotech). […] Pear, University of Pennsylvania, Philadelphia, Pa.). GFP+ (Iervolino et al., 2002) wild-type and SHP-1−/− CD34+ cells (10^6) were treated or not with forskolin (40 μM; 48 hr) and used in clonogenic assay or processed for Western blot. Where indicated, cells were treated with the following: […] Methylcellulose colony formation assays were carried out by plating 103 or 5×10^4 cells from BCR/ABL cell lines or primary human CML and mouse BMC, respectively, in 0.9% MethoCult H4230 (Stem Cell Technologies Inc.). Where indicated, cells were plated in the presence of rhIL-3 (100 ng/ml) or rhG-CSF (25 ng/ml).

[5] = test system: BCR/ABL+ cell lines and primary CML-BC CD34+ cells; test: Growth and apoptosis (annexin V) in liquid culture of BCR/ABL+ cells; format: cell-based; details: after 48 hr of forskolin treatment
Akt = test: Western blot of phosphorylated and total Akt; format: cell-based; details: okadaic acid (0.25 nM) added to FTY720
[6] = BCR/ABL+ cell lines and CML-BC CD34+ marrow blasts, exposure 18-24 hr, forskolin 40 μM
[7] = PP2A-expressing 32D-BCR/ABL cells, 25 μM, 8 hr

Molecule: C=C[C@@]1(C)CC(=O)[C@@H]2[C@@]3(C)CCCC(C)(C)[C@@H]3[C@H](O)[C@H](OC(C)=O)[C@@]2(C)O1 [1,9-dideoxy-forskolin]
BCR/ABL phosphorylation (BCR/ABL; [6]): abolished
EC50 (BCR/ABL; imatinib-resistant cells): 25 µM
EC50 (BCR/ABL; imatinib-sensitive cells): 18 µM
PP2A activity (PP2A; [6]): enhanced
LD50 [1]: 68 mg/kg
toxic side effects ([2]; 8 mg/kg/week i.p., 18 weeks after cell injection): no signs of toxic side effects
survival and BCR/ABL status (nested RT-PCR, peripheral blood) ([2]; 8 mg/kg/week i.p., after 4 weeks of treatment): all alive and BCR/ABL negative
treated mice BCR/ABL negative and alive 18 weeks after cell injection ([2]; of cell-injected mice): 50%
treated mice BCR/ABL negative and alive 18 weeks after cell injection ([2]; of treated mice): 100%
mice alive ([2]; after 7 weeks of treatment): 70%
remaining mice tested BCR/ABL+ ([2]; after suspension of treatment): 50%
mice relapsed and died of acute leukemia-like disease ([2]; within 4 weeks from the end of treatment): 20%
decrease in IL-3-dependent clonogenicity / cytokine-driven colony formation (NBM CD34+ cells): ≤ 15%

Molecule: CCCC[C@@H](C=O)NC(=O)[C@H](CC(C)C)NC(=O)[C@H](CC(C)C)NC(C)=O [ALLN] (Ac-Leu-Leu-[Nle]-aldehyde)
BCR/ABL expression (BCR/ABL; [7]): restored
PP2A-induced BCR/ABL tyrosine dephosphorylation (BCR/ABL; [7]): did not prevent

Molecule: COC[C@@H]([C@H](O)[C@H](O)C(=O)NCC[C@H](C)c1nc(/C=C/C[C@@H]2O[C@]3(C[C@@H](O)[C@@H]2C)O[C@H]([C@H](C[C@H](O)[C@H](C)[C@H](O)[C@H](C)/C=C(C)/C(C)=C/C=C/C(C)=C\C#N)OC)[C@H](OP(=O)(O)O)C3(C)C)co1)N(C)C [calyculin A]
BCR/ABL activity and expression (BCR/ABL): restored

Molecule: C=C[C@@]1(C)CC(=O)[C@]2(O)[C@@]3(C)[C@@H](O)CCC(C)(C)[C@@H]3[C@H](O)[C@H](OC(C)=O)[C@@]2(C)O1 [forskolin]
inhibition of clonogenic potential (average) [3]: 75%
EC50 (BCR/ABL; imatinib-resistant cells): 25 µM
EC50 (BCR/ABL; imatinib-sensitive cells): 18 µM
mice still alive (32D-BCR/ABL cells; control mice that received only forskolin): 100%
mice still alive (32D-BCR/ABL cells; forskolin-treated cell-injected mice): 40%
median survival (32D-BCR/ABL cells; forskolin-treated mice injected with 32D-BCR/ABL cells): 8 weeks
decrease of clonogenic potential [4]: ~70%
LD50 [1]: 67 mg/kg
percentage of apoptosis (annexin V+ cells) ([5]; BCR/ABL+ cell lines): 80%
percentage of apoptosis (annexin V+ cells) ([5]; primary CML-BC cells): 95%

PP2A activity (PP2A; 32D-BCR/ABL cells, 1 μM, 24 hr): restored to normal levels
PP2A activity (PP2A; imatinib-resistant BaF3p210 T315I cells): did not rescue
Molecule: Cc1ccc(NC(=O)c2ccc(CN3CCN(C)CC3)cc2)cc1Nc1nccc(-c2cccnc2)n1 [imatinib, imatinib mesylate]

Molecule: C=C1[C@@H](O)[C@@H]2O[C@]3(CC[C@H](/C=C/[C@@H](C)[C@@H]4CC(C)=C[C@@]5(O[C@H](C[C@@](C)(O)C(=O)O)CC[C@H]5O)O4)O3)CC[C@H]2O[C@@H]1[C@@H](O)C[C@H](C)[C@H]1O[C@@]2(CCCCO2)CC[C@H]1C [okadaic acid]
apoptosis and effect on PP2A targets (e.g. Akt dephosphorylation) observed with FTY720 (Akt): abrogates in part
BCR/ABL activity and expression (BCR/ABL): restored

Molecule: O.O.O.O.O.O.O.O.O.O=C([O-])[C@@H]1[O][Sb]2([O-])([O][Sb]34([OH])[O][C@H]([C@H](O)CO)[C@H]([O]3)[C@H](C(=O)[O-])[O]4)[O][C@H]([C@H](O)CO)[C@@H]1[O]2.[Na+].[Na+].[Na+] [sodium stibogluconate]
BCR/ABL phosphorylation (BCR/ABL; SET shRNA- and HA-PP2A-expressing 32D-BCR/ABL cells): restored

Molecule: Cn1c(=O)c2[nH]cnc2n(C)c1=O [theophylline]
BCR/ABL expression/activity (BCR/ABL; 100 μM, 24 hr): did not affect

EC50 (BCR/ABL; imatinib-resistant cells): 25 µM
EC50 (BCR/ABL; imatinib-sensitive cells): 18 µM
PP2A activity (PP2A; [6]): enhanced
Molecule: butyryl-forskolin
BCR/ABL phosphorylation (BCR/ABL; [6]): abolished

Molecule: myristoylated-PKI(14-22)-amide (Myristoyl-SGRTGRRNA-NH2; SMILES CCCCCCCCCCCCCC(=O)N[C@@H](CO)C(=O)NCC(=O)N[C@@H](CCCNC(=N)N)C(=O)N[C@H](C(=O)NCC(=O)N[C@@H](CCCNC(=N)N)C(=O)N[C@@H](CCCNC(=N)N)C(=O)N[C@@H](CC(N)=O)C(=O)N[C@@H](C)C(N)=O)[C@@H](C)O; UniProt P61925 14-22, looked up, fragment)
forskolin-induced BCR/ABL downregulation (BCR/ABL; 4 μM, 24 hr, with forskolin): did not inhibit
